Columns and labels:
[1] = system: human serosal urokinase; conditions: cited from earlier work
[2] = molecular target: chymotrypsin; test: Protease assay; type: biochemical; conditions: read-out: Inhibition constant
Procedure: (§1) Protease activity was determined using commercially available chromogenic substrates and purified proteases. The initial rate was determined with a Thermomax (Molecular Devices) microtiterplate reader at 405 nm wavelength at room temperature. The buffer used for all measurements contained 100 mM TRIS, 140 mM NaCl, 0.1% BSA, pH 7.4.
(§2) vi /vo ={([Et ]-[It ]-Ki *)+[([It ]+i
(§3) *-[Et ])^2 +4Ki *[Et ]]^ 1/2 }/2[Et ]
(§4) vi and vo are the initial rates measured in presence and in absence of inhibitor, [It ] and [Et ] are the total inhibitor and enzyme concentrations and Ki * is the apparent inhibition constant. It was assumed that under these conditions the apparent inhibition constant is not dependent on the substrate concentration and corresponds to the binding constant of the inhibitor to the active site of the protease in the conditions of the experiment.

[3] = system: elastase; conditions: cited from earlier work
[4] = molecular target: factor XIIA; test: Protease assay, chromogenic substrate; type: biochemical; conditions: 30 minutes preincubation, read-out: Inhibition constant
Procedure: as §1, with “7.4. […]” for “7.4.”
(§5) To determine inhibition constants, the protease was incubated during 90 minutes (factor Xa), 45 minutes (trypsin), or 30 minutes (thrombin, plasmin, factor VIIa-tissue factor, human plasma kallikrein, porcine pancreatic elastase, factor XIa, factor XIIa, activated protein C, recombinant t-PA and urokinase) in 150 μl before the substrate (50 μl) was added. The inhibition constant was determined from a plot of the relative activity versus the inhibitor concentration fitted with the following equation:
as §2, §3, §4

[5] = system: plasmin; test: Protease assay, chromogenic substrate; type: biochemical
Procedure: as §1, with “7.4. […]” for “7.4.”
as §5, §2, §3, §4

[6] = molecular target: rt-PA; test: Protease assay, chromogenic substrate; type: biochemical; conditions: 30 minutes preincubation, read-out: Inhibition constant
Procedure: as §1, with “7.4. […]” for “7.4.”
as §5, §2, §3, §4

[7] = molecular target: urokinase; test: Protease assay, chromogenic substrate; type: biochemical; conditions: 30 minutes preincubation, read-out: Inhibition constant
Procedure: as §1, with “7.4. […]” for “7.4.”
as §5, §2, §3, §4

[8] = system: factor VIIa-tissue factor complex; test: Protease assay, chromogenic substrate; type: biochemical; conditions: concentrations up to 1 μM
Procedure: as §1, with “7.4. […]” for “7.4.”
as §5, §2, §3, §4

[9] = molecular target: factor XIa; test: Protease assay, chromogenic substrate; type: biochemical; conditions: 30 minutes preincubation, read-out: Inhibition constant
Procedure: as §1, with “7.4. […]” for “7.4.”
as §5, §2, §3, §4

[10] = molecular target: factor Xa; test: Protease assay, chromogenic substrate; type: biochemical; conditions: 90 minutes preincubation, read-out: Inhibition constant
Procedure: as §1, with “7.4. […]” for “7.4.”
as §5, §2, §3, §4

[11] = molecular target: human plasma kallikrein; test: Protease assay, chromogenic substrate; type: biochemical; conditions: 30 minutes preincubation, read-out: Inhibition constant
Procedure: as §1, with “7.4. […]” for “7.4.”
as §5, §2, §3, §4

[12] = molecular target: activated protein C; test: Protease assay, chromogenic substrate; type: biochemical; conditions: 30 minutes preincubation, read-out: Inhibition constant
Procedure: as §1, with “7.4. […]” for “7.4.”
as §5, §2, §3, §4

[13] = system: trypsin-like (protease II) esterase; conditions: cited from earlier work
[14] = system: papain; conditions: cited from earlier work
[15] = system: pepsin; conditions: cited from earlier work
[16] = system: chymotrypsin-like (protease I) esterase; conditions: cited from earlier work
[17] = system: kallikrein; conditions: cited from earlier work
[18] = system: human pulmonary tryptase; conditions: cited from earlier work
[19] = system: three membrane-associated serine proteases; conditions: cited from earlier work
[20] = system: eight soluble endoproteases which are isolated from E. coli (Do, Re, Mi, Fa, So, La, Ci, Pi); conditions: cited from earlier work
[21] = system: pancreatic elastase; conditions: cited from earlier work
[22] = system: occlusive thrombus formation in rat carotid artery; test: Rat model of FeCl3-induced platelet-dependent arterial thrombosis; type: in vivo; conditions: 10 μg/kg/min continuous intravenous infusion
Description: The rat model is a well characterized model of platelet dependent, arterial thrombosis which has been used in the evaluation potential antithrombotic compounds such as direct thrombin inhibitors. Kurz et al., 60 Thromb. Res. 269, 1990. […] In this model a platelet-rich, occlusive thrombus is formed in a segment of the rat carotid artery treated with a fresh solution of FeCl3 absorbed to a piece of filter paper. The FeCl3 is thought to diffuse into the treated segment of artery and causes de-endothelialization resulting in thrombus formation. The effect of a test compound on the incidence of occlusive thrombus formation following the application of the FeCl3 is monitored by ultrasonic flowtometry, and is used as the primary end point. The use of flowtometry is a modification of the original procedure in which thermal detection of clot formation was employed. Kurz et al., supra.
Male Harlan Sprague Dawley rats (420-450 g) were acclimated at least 72 hours prior to use and fasted for 12 hours prior to surgery with free access to water. The animals were prepared, anesthetized with Nembutal with catheters for blood pressure monitoring, drug and anesthesia delivery being implanted as described above. The left carotid artery was isolated by making a midline cervical incision followed by blunt dissection and spreading techniques to separate a 2 cm segment of the vessel from the carotid sheath. A silk suture was inserted under the proximal and distal ends of the isolated vessel to provide clearance for the placement of an ultrasonic flow probe (Transonic) around the proximal end of the vessel. […]
Following surgery, the animals were randomized in either a control (saline infusion) or treatment group with test compound (Ecotin) with at least 4 animals per group at the indicated dose. […] Blood pressure, blood flow, heart rate, and respiration were monitored for 60 minutes.
The incidence of occlusion (defined as the attainment of zero blood flow) was recorded as the primary end point. […] The segment was re-weighed following removal of the clot and the difference recorded as total % clot weight. […]

[23] = system: rat mast cell chymase; conditions: cited from earlier work
[24] = system: trypsin; conditions: cited from earlier work
[25] = system: thermolysin; conditions: cited from earlier work
[26] = system: Staphylococcus aureus V8 protease; conditions: cited from earlier work
[27] = system: subtilisin; conditions: cited from earlier work
[28] = molecular target: thrombin; test: Protease assay, chromogenic substrate; type: biochemical; conditions: 30 minutes preincubation, read-out: Inhibition constant
Procedure: as §1, with “7.4. […]” for “7.4.”
as §5, with “equation: […]” for “equation:”
except for thrombin where the total enzyme concentration can be neglected compared to the inhibitor concentration and the equation is reduced to:
vi /vo =1/(1+[It ]/Ki *).
vi and vo are the initial rates measured in presence and in absence of inhibitor, [It ] and [Et ] are the total inhibitor and enzyme concentrations and Ki * is the apparent inhibition constant. […]

Ecotin: endogenous E. coli periplasmic serine protease (trypsin) inhibitor protein; recombinant form from pMa5-CI, molecular mass 16,098 Daltons
inhibition of human serosal urokinase [1]: potent inhibitor
Ki [2]: < 2.5 nM
inhibition of elastase [3]: able to inhibit
Ki [4]: < 2.5 nM
Plasmin inhibition ([5]; 1 μM recombinant Ecotin): 15%
Inhibition constant ([5]; plasmin, 30 minutes preincubation): inactive
Ki [6]: > 2500 nM
Ki [7]: > 2500 nM
inhibition of factor VIIa-tissue factor complex [8]: not inhibited
Ki [9]: 2.5 to 25 nM
Ki [10]: 0.05 to 0.2 nM
Ki [11]: 1.4 nM
Ki [12]: > 2500 nM
inhibition of trypsin-like (protease II) esterase in E. coli [13]: does not inhibit
inhibition of papain [14]: does not inhibit
inhibition of pepsin [15]: does not inhibit
inhibition of chymotrypsin-like (protease I) esterase in E. coli [16]: does not inhibit
inhibition of kallikrein [17]: does not inhibit
inhibition of human pulmonary tryptase [18]: does not inhibit
inhibition of three membrane-associated serine proteases [19]: insensitive to inhibition
inhibition of the eight soluble E. coli endoproteases [20]: does not inhibit
inhibition of pancreatic elastase [21]: potent inhibitor
Time to Occlusion [22]: 20.1 ± 0.9 min
Incidence of Occlusion ([22]; 60 minute observation): 2/6
Clot Formation (%) ([22]; p<0.01 vs Control): 12.73 ± 8.04%
inhibition of rat mast cell chymase [23]: potent inhibitor
inhibition of trypsin [24]: able to inhibit
inhibition of thermolysin [25]: does not inhibit
inhibition of Staphylococcus aureus V8 protease [26]: does not inhibit
inhibition of subtilisin [27]: does not inhibit
Ki [28]: 7200 nM
